Here are results for 1 molecule from patent publication US20250346629A1, “USE OF D-ENANTIOMERIC PEPTIDE LIGANDS OF MONOMERIC ALPHA-SYNUCLEIN FOR THE THERAPY OF VARIOUS SYNUCLEINOPATHIES” (PRIAVOID GMBH, priority 2021, published 2025).

Molecules are shown by their SMILES. Square brackets hold non-standard residues; d marks the D form. Peptide text beside a SMILES is read from it.

Test [1] addresses full-length α-syn (Homo sapiens, UniProt P37840). The test is described as follows: MST measurement of fluorophore-labeled peptides with full-length α-syn (FIG. 10). The class given is binding. To be noted: 100 nM labeled peptide, PBS pH 7.4, 25° C., individual measurement. The protocol: The peptides were fluorescence labeled by means of cysteine-maleimide coupling. SVD-1_Cys and SVD 1a_Cys were fluorescence labeled at the C-terminus with a fivefold or tenfold molar excess of TCEP and CF633-PEG2-maleimide (Sigma-Aldrich, USA). The labeling reaction was carried out in 25 mM NaPi, PH 7.0, for 2 h at RT. The labeled peptides were purified at 25° C. using an Agilent 1260 Infinity II System and a C-18 RP-HPLC column (Zorbax 300 SB-C8/SB-C 18, Agilent, USA). The mobile phases consisted of A: water+0.1% TFA, and B: acetonitrile+0.1% TFA. The fluorescence-labeled peptides and proteins were eluted with a gradient of 5-40% (v/v) B in 30 min. The fluorescence-labeled products were fractionated using the absorption wavelength of the fluorophore (CF633: 633 nm) and the pooled samples were subsequently lyophilized and redissolved in the appropriate buffer. The protein concentrations were determined by means of UV-vis and the fluorescence-labeled samples were stored at −20° C.
The experiments for microscale thermophoresis (MST) were carried out using a Monolith NT.115 device (NanoTemper Technologies GmbH, GE). Fluorescence-labeled peptides were diluted in PBS, PH 7.4 to a final concentration of 100 nM. […] The data was evaluated with the thermophoresis effect, using the NT analysis software (version 1.5.41) supplied by the manufacturer. […]

For test [2], the system named is αSynA53T-YFP cells (HEK293T). The test is described as follows: Cell assay for seeded α-synuclein aggregation (FIG. 19). As to conditions: seeded with 30 nM PFF oligomers, day 3, two-stage transfection. Type of test: cell-based, human. Here is the method: A construct encoding full-length A53T-mutated human α-syn and fused with YFP at the C-terminus was synthesized and introduced into the pMK-RQ expression vector (GeneArt; Thermo Fisher Scientific, USA). The α-synA53T-YFP construct was sub-cloned using the restriction sites NheI (5′) and NotI (3′) in the vector pIRESpuro3 (Clontech; Takara Bio, JPN). HEK293T cells (American Type Culture Collection) were cultured in high-glucose Dulbecco's Modified Eagle's Medium (DMEM; Sigma-Aldrich, USA) which had 10% fetal calf serum (Sigma-Aldrich, USA), 50 units/ml penicillin, and also 50 μg/ml streptomycin (Sigma-Aldrich, USA) added thereto. The cells were cultured at 37° C. in a humidified atmosphere with 5% CO2.
The cells plated in DMEM were transfected with Lipofectamine 2000 (Invitrogen; Thermo Fisher Scientific, USA). Stable cells were selected in DMEM with 1 μg/ml puromycin (EMD Millipore, USA). Monoclonal cell lines were produced by means of fluorescence-activated cell sorting of a polyclonal cell population in 96-well plates using a MoFlo XDP cell sorter (Beckman Coulter, USA). […]
The plates were then incubated at 37° C. in a humidified atmosphere with 5% CO2. On the third day, the cells were imaged in an IN Cell Analyzer 6500HS system (Cytiva, USA) using the blue and green fluorescence channels, and analyzed by the IN Carta Image Analysis software (Cytiva, USA) which had been used to establish an algorithm for identifying intracellular aggregates in living cells. Four wells were used for each condition and 16 images were recorded per well and analyzed by a fully-automated algorithm in order to prevent distortions. […]
In order to validate the inhibitory effect of SVD-1a in cells, use was made of the α-synA53T-YFP cell system which stably expresses human α-syn with the familial A53T mutation, fused with YFP, in HEK293T cells, and the fluorescence-based detection of aggregates makes it possible to clearly show the strongly fluorescent spots within the cells against the background, intracellularly after seeding with PFF oligomers. […] Panels C, F and I show αSynA53T-YFP fluorescence. […]

As to `CC[C@@H](C)[C@@H](NC(=O)[C@@H](Cc1c[nH]cn1)NC(=O)[C@@H](CCC(=O)O)NC(=O)[C@@H](CCC(N)=O)NC(=O)[C@@H](Cc1c[nH]c2ccccc12)NC(=O)[C@@H](Cc1ccc(O)cc1)NC(=O)[C@H](NC(=O)[C@@H](CCC(=O)O)NC(=O)[C@@H](Cc1c[nH]cn1)NC(=O)[C@H](NC(=O)[C@H]1CCCN1C(=O)[C@@H](CC(C)C)NC(=O)[C@H](N)CCCNC(=N)N)[C@H](C)O)[C@H](C)O)C(=O)N[C@H](Cc1c[nH]c2ccccc12)C(=O)N[C@H](Cc1c[nH]cn1)C(=O)N[C@H](C)C(=O)N[C@H](CCCNC(=N)N)C(=O)N[C@H](CCCNC(=N)N)C(=O)N[C@H](CCCNC(=N)N)C(=O)N[C@H](CCCNC(=N)N)C(=O)N[C@H](CCCNC(=N)N)C(N)=O` [SVD-1a, rlpthetywqehiwharrrrr] (H-[dR][dL][dP][dT][dH][dE][dT][dY][dW][dQ][dE][dH][dI][dW][dH][dA][dR][dR][dR][dR][dR]-NH2), the affinity in test [1], expressed as Kd, was 390 nM. Also, the “inhibition of α-syn aggregation in cells” value in test [2] is “inhibited α-syn aggregation in αSynA53T-YFP cells in a dose-dependent manner”.
